Source: paper PMC6753081 (Nature Communications, 2019)

How the values were obtained:
[1] = biological target: T1, A. fumigatus CN/FKBP12 complex (CnA/CnB/AfFKBP12) (Aspergillus fumigatus, UniProt Q4WDF2+Q4WLV6+Q4WUR1); settings: ternary complex CnA/CnB-FK506-FKBP12; at the FKBP12-BBH/CnB interface, not the phosphatase active site
T1 construct: gene cnaA

FKBP12 (C. albicans) = biological target: T2, FKBP12 (C. albicans) (Candida albicans, UniProt P28870); assay type: binding; settings: pH […] °C, […] phosphate, […] NaCl
T2 construct: gene RBP1; E. coli BL21(DE3), N-terminal 6xHis cut by thrombin, 15N/13C labelled, free FKBP12
T2 sequence (P28870 1-124): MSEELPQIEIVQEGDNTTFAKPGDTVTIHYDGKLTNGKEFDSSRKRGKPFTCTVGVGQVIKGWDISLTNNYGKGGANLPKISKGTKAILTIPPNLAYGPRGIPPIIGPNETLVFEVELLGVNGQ

[2] = biological target: T3, C. neoformans calcineurin catalytic subunit (CnA), residues 34-402 (C. neoformans, UniProt O42773 34-402); assay: crystal structure; settings: both partners purified
T3 construct: also called calcineurin A
T3 sequence (O42773 34-402): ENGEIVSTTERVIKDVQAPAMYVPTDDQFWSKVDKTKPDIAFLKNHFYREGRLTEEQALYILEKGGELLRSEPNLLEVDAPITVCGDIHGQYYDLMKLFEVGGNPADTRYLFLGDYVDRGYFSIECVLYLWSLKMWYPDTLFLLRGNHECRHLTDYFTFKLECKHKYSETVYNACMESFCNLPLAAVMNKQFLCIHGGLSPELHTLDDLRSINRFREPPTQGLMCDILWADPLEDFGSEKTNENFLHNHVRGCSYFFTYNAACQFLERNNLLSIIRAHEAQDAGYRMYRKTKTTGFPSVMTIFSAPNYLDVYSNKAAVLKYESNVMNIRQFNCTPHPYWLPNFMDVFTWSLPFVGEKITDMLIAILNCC

T1 sequence (Q4WDF2 entry or part of it): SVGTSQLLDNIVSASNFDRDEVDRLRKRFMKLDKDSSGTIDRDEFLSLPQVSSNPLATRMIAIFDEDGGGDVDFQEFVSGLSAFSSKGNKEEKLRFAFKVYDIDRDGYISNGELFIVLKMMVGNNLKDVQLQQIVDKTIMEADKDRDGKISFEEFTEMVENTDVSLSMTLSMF
T1 sequence (Q4WUR1 2-370): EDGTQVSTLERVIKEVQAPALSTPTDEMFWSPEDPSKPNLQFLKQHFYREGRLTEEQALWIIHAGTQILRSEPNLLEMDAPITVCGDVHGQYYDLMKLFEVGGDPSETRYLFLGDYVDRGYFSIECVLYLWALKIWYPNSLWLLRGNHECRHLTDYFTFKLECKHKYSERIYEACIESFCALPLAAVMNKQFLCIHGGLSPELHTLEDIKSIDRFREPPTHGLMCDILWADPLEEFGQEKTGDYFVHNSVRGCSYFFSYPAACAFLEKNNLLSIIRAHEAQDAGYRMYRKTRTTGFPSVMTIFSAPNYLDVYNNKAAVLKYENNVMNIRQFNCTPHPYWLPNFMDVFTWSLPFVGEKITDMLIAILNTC
T1 sequence (Q4WLV6 2-112): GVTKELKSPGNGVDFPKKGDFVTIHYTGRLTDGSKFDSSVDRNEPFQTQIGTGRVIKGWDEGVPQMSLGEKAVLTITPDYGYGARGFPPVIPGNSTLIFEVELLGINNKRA

Molecule: C=CC[C@@H]1/C=C(\C)C[C@H](C)C[C@H](OC)[C@H]2O[C@@](O)(C(=O)C(=O)N3CCCC[C@H]3C(=O)O[C@H](/C(C)=C/[C@@H]3CC[C@@H](O)[C@H](OC)C3)[C@H](C)[C@@H](O)CC1=O)[C@H](C)C[C@@H]2OC [FK506]
- X-ray crystal structure, 2.50 Å [1]: A single copy of the complex was placed per asymmetric unit (PDB ID: 6TZ7)
- NMR resonance assignment of apo and FK506-bound state (FKBP12 (C. albicans)): A. fumigatus and C. albicans were determined in both the apo and FK506 bound states

B1: C. neoformans calcineurin regulatory subunit (CnB), residues 1-175 (natural protein)
chain: MGAAESSMFNSLEKNSNFSGPELMRLKKRFMKLDKDGSGSIDKDEFLQIPQIANNPLAHRMIAIFDEDGSGTVDFQEFVGGLSAFSSKGGRDEKLRFAFKVYDMDRDGYISNGELYLVLKQMVGNNLKDQQLQQIVDKTIMEADKDGDGKLSFEEFTQMVASTDIVKQMTLEDLF
notes: also called calcineurin B
- binding result [2]: binds
